Source: ChEMBL document CHEMBL1201862, “PubChem BioAssay data set” (2004)
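Method: 48-hour compound exposure of cells in 96-well plates, five concentrations, linear interpolation of endpoints. GI50: concentration for 50% inhibition of growth.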 Activity calls are given as the source filed them. Rule as the data show it: active = GI50 up to about 1.1 µM and inactive = higher.

What was measured:
Experiment in all cases: inhibition of tumour cell growth, NCI panel, 48 h
OVCAR-5 = system: OVCAR-5
SNB-75 = system: SNB-75
CAKI-1 = system: CAKI-1
HOP-62 = system: HOP-62
HCT-15 = system: HCT-15
HOP-92 = system: HOP-92
M14 = system: M14
MCF7 = system: MCF7
SF-539 = system: SF-539
MDA-MB-435 = system: MDA-MB-435
HT-29 = system: HT-29
LOX IMVI = system: LOX IMVI
NCI-H460 = system: NCI-H460
SK-MEL-28 = system: SK-MEL-28
SN12C = system: SN12C
NCI/ADR-RES = system: NCI/ADR-RES
UACC-62 = system: UACC-62
KM12 = system: KM12
NCI-H522 = system: NCI-H522
786-0 = system: 786-0

| SMILES | GI50 (OVCAR-5) | GI50 (SNB-75) | GI50 (CAKI-1) | GI50 (HOP-62) | GI50 (HCT-15) [µM] | GI50 (HOP-92) | GI50 (M14) | GI50 (MCF7) | GI50 (SF-539) | GI50 (MDA-MB-435) | GI50 (HT-29) | GI50 (LOX IMVI) | GI50 (NCI-H460) | GI50 (SK-MEL-28) | GI50 (SN12C) | GI50 (NCI/ADR-RES) | GI50 (UACC-62) | GI50 (KM12) | GI50 (NCI-H522) | GI50 (786-0) |
| --- | --- | --- | --- | --- | --- | --- | --- | --- | --- | --- | --- | --- | --- | --- | --- | --- | --- | --- | --- | --- |
| CO/N=C1/c2sccc2[C@H](NC(=O)CNC(=O)OC(C)(C)C)[C@@H]1O | > 100 µM (inactive) | > 100 µM (inactive) | > 100 µM (inactive) | > 100 µM (inactive) | > 100 | > 100 µM (inactive) | > 100 µM (inactive) | > 100 µM (inactive) | > 100 µM (inactive) | > 100 µM (inactive) | > 100 µM (inactive) | > 100 µM (inactive) | > 100 µM (inactive) | > 100 µM (inactive) | > 100 µM (inactive) | > 100 µM (inactive) | > 100 µM (inactive) | – | – | – |
| Cc1c(N2C(=O)CS(=O)(=O)C2c2cccc(Oc3ccccc3)c2)c(=O)n(-c2ccccc2)n1C (centres undefined) | > 100 µM (inactive) | – | 42.3 µM (inactive) | 33.9 µM (inactive) | 61.5 | 44.2 µM (inactive) | 23.7 µM (inactive) | 36.9 µM (inactive) | > 100 µM (inactive) | 36.9 µM (inactive) | 34.4 µM (inactive) | 47.6 µM (inactive) | 37.2 µM (inactive) | > 100 µM (inactive) | 40.5 µM (inactive) | 61.2 µM (inactive) | 66.2 µM (inactive) | 19.4 µM (inactive) | 26.1 µM (inactive) | – |
| O=c1cnn(CCOCP(=O)(O)O)c(=O)[nH]1 | > 100 µM (inactive) | > 100 µM (inactive) | > 100 µM (inactive) | > 100 µM (inactive) | – | > 100 µM (inactive) | > 100 µM (inactive) | > 100 µM (inactive) | > 100 µM (inactive) | > 100 µM (inactive) | > 100 µM (inactive) | > 100 µM (inactive) | > 100 µM (inactive) | > 100 µM (inactive) | > 100 µM (inactive) | > 100 µM (inactive) | – | > 100 µM (inactive) | > 100 µM (inactive) | – |
| CCCO[C@@H]1[C@@H](OC(C)=O)[C@@H](OC(C)=O)C(C)(C)/C=C/[C@H](C)C(=O)[C@@]2(OC(C)=O)C[C@@](C)(OC(C)=O)[C@H](OC(C)=O)[C@@H]2[C@H]2OC(=O)CC[C@@]12OC(=O)c1ccccc1 | > 25 µM (inactive) | > 25 µM (inactive) | 17.7 µM (inactive) | > 25 µM (inactive) | > 25 | > 25 µM (inactive) | > 25 µM (inactive) | 23.6 µM (inactive) | > 25 µM (inactive) | 15.2 µM (inactive) | 5.18 µM (inactive) | > 25 µM (inactive) | 6.73 µM (inactive) | – | > 25 µM (inactive) | > 25 µM (inactive) | > 25 µM (inactive) | > 25 µM (inactive) | 0.774 µM (active) | – |
| Cc1cc(C)c2c(n1)S(=O)(=O)N(CCCN1CCN(c3cccc(C(F)(F)F)c3)CC1)C(C(=O)c1ccccc1)=C2O | 7.36 µM (inactive) | 3.48 µM (inactive) | 2.79 µM (inactive) | 8.38 µM (inactive) | 4.62 | 5.19 µM (inactive) | 7.36 µM (inactive) | 7.13 µM (inactive) | 10.1 µM (inactive) | 6.11 µM (inactive) | 5.22 µM (inactive) | 3.03 µM (inactive) | 4.66 µM (inactive) | 9.64 µM (inactive) | 4.55 µM (inactive) | 3.21 µM (inactive) | 10.2 µM (inactive) | 5.02 µM (inactive) | 4 µM (inactive) | 4.48 µM (inactive) |
| NC(=S)N/N=C1\C(=O)Nc2c(Cl)cc(Cl)cc21 | 81.7 µM (inactive) | 19 µM (inactive) | 41.2 µM (inactive) | 13 µM (inactive) | 24.8 | 72.1 µM (inactive) | 17.2 µM (inactive) | 28 µM (inactive) | 18.1 µM (inactive) | 16.7 µM (inactive) | 18.8 µM (inactive) | 18.3 µM (inactive) | 17.1 µM (inactive) | 15 µM (inactive) | 19.5 µM (inactive) | 17.8 µM (inactive) | 17.3 µM (inactive) | 18.9 µM (inactive) | – | 22.9 µM (inactive) |
